Test results: article PMC5030704 (Scientific Reports, 2016)

molecular target: T1, TNIK (Homo sapiens, UniProt Q9UKE5); assay: KINOMEscan competition binding (immobilised reference ligand, qPCR); settings: read-out: % Ctrl / 10 μM
T1 construct: kinase domain, DNA-tagged, KINOMEscan commercial panel
Excerpt: KINOMEscan competition binding (immobilised reference ligand, qPCR) on TNIK

T1 sequence (Q9UKE5 25-289 limits assumed): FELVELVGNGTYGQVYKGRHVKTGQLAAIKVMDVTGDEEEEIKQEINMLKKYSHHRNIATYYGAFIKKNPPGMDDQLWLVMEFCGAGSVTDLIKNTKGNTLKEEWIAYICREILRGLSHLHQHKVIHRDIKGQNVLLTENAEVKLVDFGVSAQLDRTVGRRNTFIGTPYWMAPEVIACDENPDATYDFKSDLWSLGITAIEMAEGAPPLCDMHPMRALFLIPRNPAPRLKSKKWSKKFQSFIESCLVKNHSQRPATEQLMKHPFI

SMILES | remaining binding at 10 µM
Cc1nc(Nc2ncc(C(=O)Nc3c(C)cccc3Cl)s2)cc(N2CCN(CCO)CC2)n1 [Dasatinib] | 11%
CN1CC[C@H](c2c(O)cc(O)c3c(=O)cc(-c4ccccc4Cl)oc23)[C@H](O)C1 [Flavopiridol] | 33%
COC(=O)Nc1nc2cc(C(=O)c3ccccc3)ccc2[nH]1 [Mebendazole] | 8.2%
